Measured values taken from article PMC12307583 (Scientific Reports, 2025).

Assays:
PfGrp94 = PfGrp94 (Plasmodium falciparum, UniProt Q8I0V4); settings: basal ATPase; used as control protein
PfGrp170 [1] = biological target: T1, PfGrp170 (Plasmodium falciparum, UniProt C0H5H0); assay: biochemical
T1 sequence (C0H5H0 20-932): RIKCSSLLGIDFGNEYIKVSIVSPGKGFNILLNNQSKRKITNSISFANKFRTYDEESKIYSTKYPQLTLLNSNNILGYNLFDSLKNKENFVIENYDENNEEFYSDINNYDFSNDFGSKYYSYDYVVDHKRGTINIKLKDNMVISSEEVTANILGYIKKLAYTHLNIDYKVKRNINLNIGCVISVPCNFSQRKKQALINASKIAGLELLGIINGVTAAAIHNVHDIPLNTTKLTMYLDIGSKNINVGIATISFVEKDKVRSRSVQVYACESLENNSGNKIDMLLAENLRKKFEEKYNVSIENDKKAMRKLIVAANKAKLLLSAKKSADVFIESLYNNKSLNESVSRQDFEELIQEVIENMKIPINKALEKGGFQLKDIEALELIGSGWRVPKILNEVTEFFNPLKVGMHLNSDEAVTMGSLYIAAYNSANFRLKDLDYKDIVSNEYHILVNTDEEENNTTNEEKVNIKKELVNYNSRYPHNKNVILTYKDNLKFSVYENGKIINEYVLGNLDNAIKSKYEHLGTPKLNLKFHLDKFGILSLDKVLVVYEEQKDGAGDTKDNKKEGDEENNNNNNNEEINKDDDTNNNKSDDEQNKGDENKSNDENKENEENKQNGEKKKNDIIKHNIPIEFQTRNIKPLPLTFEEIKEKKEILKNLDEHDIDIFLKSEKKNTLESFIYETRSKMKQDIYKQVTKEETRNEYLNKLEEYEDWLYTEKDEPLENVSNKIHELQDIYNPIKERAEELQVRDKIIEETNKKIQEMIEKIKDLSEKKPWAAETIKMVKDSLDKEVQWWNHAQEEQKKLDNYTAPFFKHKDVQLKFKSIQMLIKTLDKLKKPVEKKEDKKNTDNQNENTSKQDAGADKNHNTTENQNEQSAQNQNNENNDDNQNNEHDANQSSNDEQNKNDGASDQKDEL

PfGrp170 [2] = biological target: T1, PfGrp170; assay: suppression of heat-induced MDH aggregation, light scattering […] nm; type: biochemical; settings: 100 µM NECA, 1 µM PfGrp170, MDH (pig heart), 20 mM Tris-HCl pH 7.5, 200 mM NaCl, 5 mM MgCl2, 48 °C; inhibitor of chaperone function

Chain of PfGrp94 (Q8I0V4 29-821): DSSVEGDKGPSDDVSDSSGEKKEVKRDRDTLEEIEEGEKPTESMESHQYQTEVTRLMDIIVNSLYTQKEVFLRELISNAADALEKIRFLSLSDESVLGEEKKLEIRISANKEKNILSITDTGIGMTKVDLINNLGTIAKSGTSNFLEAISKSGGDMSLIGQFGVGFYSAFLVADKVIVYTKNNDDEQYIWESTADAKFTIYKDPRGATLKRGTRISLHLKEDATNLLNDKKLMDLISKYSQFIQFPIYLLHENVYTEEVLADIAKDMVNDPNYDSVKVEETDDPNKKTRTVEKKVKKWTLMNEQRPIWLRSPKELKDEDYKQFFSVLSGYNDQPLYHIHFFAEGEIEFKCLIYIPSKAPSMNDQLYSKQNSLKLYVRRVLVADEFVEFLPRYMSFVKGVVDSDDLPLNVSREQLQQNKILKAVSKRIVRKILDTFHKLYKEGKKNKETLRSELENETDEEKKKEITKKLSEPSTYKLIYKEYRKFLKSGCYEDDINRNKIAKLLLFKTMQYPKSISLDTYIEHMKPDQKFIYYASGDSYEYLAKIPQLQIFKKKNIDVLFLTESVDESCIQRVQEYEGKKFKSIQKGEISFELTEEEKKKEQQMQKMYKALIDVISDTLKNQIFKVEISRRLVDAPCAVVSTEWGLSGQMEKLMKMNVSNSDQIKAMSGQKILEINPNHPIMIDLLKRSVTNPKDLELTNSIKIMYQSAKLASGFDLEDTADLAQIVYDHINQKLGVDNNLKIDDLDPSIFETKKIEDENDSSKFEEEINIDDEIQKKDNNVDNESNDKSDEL

Structure (SMILES) | ATPase activity (PfGrp94) | Kd (PfGrp170 [1]) [nM] | relative aggregation (PfGrp170 [2])
Nc1ncnc2c1ncn2[C@@H]1O[C@H](COP(=O)(O)OP(=O)(O)OP(=O)(O)O)[C@@H](O)[C@H]1O [ATP] | The basal ATPase activity of PfGrp170 and PfGrp94 as control | 143 ± 15.6 | 
CCNC(=O)[C@H]1O[C@@H](n2cnc3c(N)ncnc32)[C@H](O)[C@@H]1O [NECA] |  |  | higher concentrations of NECA abrogated the chaperone function of PfGrp170
